Assay [1] relates to Vero. The experiment in a line: Cytotoxic concentration required to reduce the number of Vero cells by 50%. Particulars: Chlorocebus sabaeus. The assay is classed as cell-based.
In assay [2] the test system is Vesicular stomatitis virus. Briefly: Inhibitory concentration required to reduce virus -induced cytopathicity (VSV). It is filed as functional, organism-based.
The subject of a further assay is Measles morbillivirus. The experiment in a line: Inhibitory concentration required to reduce virus Plaque formation (measles). The assay is classed as functional, organism-based.
The next assay concerns Mumps virus. The experiment in a line: Inhibitory concentration required to reduce virus Plaque formation (mumps). The assay is classed as functional, organism-based. Particulars: Mumps orthorubulavirus.
Assay [3] relates to HEL. Briefly: Antiviral and cytostatic effects against VZV(Oka,YS) virus expressed in HEL cells. The assay is classed as functional, cell-based. Particulars: Homo sapiens.
In assay [4] the test system is Vero. The experiment in a line: Antiviral and cytostatic effects against forest virus expressed in Vero cells. It is filed as functional, cell-based. Particulars: Chlorocebus sabaeus.
The test system of another assay is MOLT-4. Briefly: Antiviral and cytostatic effects againstTK-VZV virus expressed in MOLT-4 cells. Particulars: Homo sapiens. The assay is classed as functional, cell-based.
Assay [5] concerns Vero. Briefly: Antiviral and cytostatic effects againstTK-VZV virus expressed in Vero cells. Particulars: Chlorocebus sabaeus. The assay is classed as functional, cell-based.
Assay [6] has as its system E6SM. The experiment in a line: Antiviral and cytostatic effects against Hsv-1(KOS) virus expressed in E6SM cells. Particulars: Homo sapiens. The assay is classed as functional, cell-based.
In assay [7] the test system is HEL. Briefly: Antiviral and cytostatic effects againstTK-VZV virus expressed in HEL cells. The assay is classed as functional, cell-based. Particulars: Homo sapiens.
For assay [8], the system named is E6SM. The experiment in a line: Antiviral and cytostatic effects against Hsv-2(G) virus expressed in E6SM cells. It is filed as functional, cell-based. Particulars: Homo sapiens.
Assay [9] has as its system Vero. Briefly: Antiviral and cytostatic effects against Junin virus expressed in Vero cells. It is filed as functional, cell-based. Particulars: Chlorocebus sabaeus.
Another assay deals with FM3A. The experiment in a line: Antiviral and cytostatic effects againstTK-VZV virus expressed in FM3A cells. Particulars: Mus musculus. The assay is classed as functional, cell-based.
Assay [10] concerns E6SM. Briefly: Antiviral and cytostatic effects againstTK-VZV virus expressed in E6SM cells. The assay is classed as functional, cell-based. Particulars: Homo sapiens.
The subject of assay [11] is Vero. The experiment in a line: Antiviral and cytostatic effects against Sindbis virus expressed in Vero cells. It is filed as functional, cell-based. Particulars: Chlorocebus sabaeus.
Assay [12] deals with E6SM. The experiment in a line: Antiviral and cytostatic effects against TK HSV-1( B2006) virus expressed in E6SM cells. Particulars: Homo sapiens. It is filed as functional, cell-based.
Assay [13] concerns E6SM. Briefly: Antiviral and cytostatic effects against CMV (Davis) virus expressed in […]. It is filed as functional, cell-based. Particulars: Homo sapiens.
In assay [14] the test system is E6SM. The experiment in a line: Antiviral and cytostatic effects against VSV virus expressed in E6SM cells. Particulars: Homo sapiens. The assay is classed as functional, cell-based.
Assay [15] has as its system HEL. Briefly: Antiviral and cytostatic effects against TK-VZV virus expressed in HEL cells. The assay is classed as functional, cell-based. Particulars: Homo sapiens.
Assay [16] relates to HeLa. Briefly: Antiviral and cytostatic effects against Polio-1 virus expressed in Hela cells. The assay is classed as functional, cell-based. Particulars: Homo sapiens.
The subject of assay [17] is HEL. Briefly: Antiviral and cytostatic effects against CMV (AD-169) virus expressed in HEL cells. It is filed as functional, cell-based. Particulars: Homo sapiens.
A further assay deals with L1210. Briefly: Antiviral and cytostatic effects againstTK-VZV virus expressed in L1210 cells. It is filed as functional, cell-based. Particulars: Mus musculus.
In assay [18] the test system is HeLa. The experiment in a line: Antiviral and cytostatic effects against Coxsackie B4 virus expressed in HeLa cells. The assay is classed as functional, cell-based. Particulars: Homo sapiens.
The test system of assay [19] is Vero. The experiment in a line: Antiviral and cytostatic effects against Parainfluenza-3 virus expressed in Vero cells. Particulars: Chlorocebus sabaeus. The assay is classed as functional, cell-based.
In assay [20] the test system is HeLa. Briefly: Antiviral and cytostatic effects against VSV virus expressed in Hela cells. It is filed as functional, cell-based. Particulars: Homo sapiens.
For assay [21], the system named is Vero. The experiment in a line: Antiviral and cytostatic effects against Tacaribe virus expressed in Vero cells. It is filed as functional, cell-based. Particulars: Chlorocebus sabaeus.
In assay [22] the test system is HeLa. The experiment in a line: Antiviral and cytostatic effects againstTK-VZV virus expressed in Hela cells. It is filed as functional, cell-based. Particulars: Homo sapiens.
The test system of assay [23] is E6SM. The experiment in a line: Antiviral and cytostatic effects against VV virus expressed in E6SM cells. The assay is classed as functional, cell-based. Particulars: Homo sapiens.
A further assay deals with CCRF-CEM. The experiment in a line: Antiviral and cytostatic effects againstTK-VZV virus expressed in CEM cells. The assay is classed as functional, cell-based. Particulars: Homo sapiens.
The subject of assay [24] is Vero. Briefly: Antiviral and cytostatic effects against Reo-1 virus expressed in Vero cells. The assay is classed as functional, cell-based. Particulars: Chlorocebus sabaeus.

Values after ≈ are worked out from the molar mass of the structure shown. Bounds are passed on as bounds.

Take `C[C@H](O)C1=C[C@@H](n2cnc3c(N)ncnc32)[C@H](O)[C@@H]1O`: the IC50 in the assay with Vero [1] was greater than 200 µg/mL; in assay [2] it was 0.25 µg/mL (≈ 0.902 µM); in the assay on Measles morbillivirus, 0.09 µg/mL (≈ 0.325 µM); with Mumps virus it was 0.19 µg/mL (≈ 0.685 µM).

Regarding `C[C@H](O)C1=C[C@@H](n2cnc3c(N)nc(F)nc32)[C@H](O)[C@@H]1O`, the half-maximal inhibitory concentration (IC50) in the assay with Vero [1] is greater than 200 µg/mL; in assay [2], 16 µg/mL (≈ 54.2 µM); in the assay on Measles morbillivirus, greater than 25 µg/mL; in the assay on Mumps virus, 7 µg/mL (≈ 23.7 µM).

For the molecule `Nc1nc(Cl)nc2c1ncn2[C@@H]1C=C(CO)[C@@H](O)[C@H]1O`, the IC50 was greater than 200 µg/mL with Vero [1], 63 µg/mL (≈ 212 µM) in assay [2], 29 µg/mL (≈ 97.4 µM) with Measles morbillivirus and greater than 25 µg/mL in the assay on Mumps virus.

For the molecule `Nc1ncnc2c1ncn2[C@@H]1C=C[C@@H](O)[C@H]1O`, the half-maximal inhibitory concentration (IC50) with Vero [1] is greater than 200 µg/mL; in [2], 1 µg/mL (≈ 4.29 µM); in the assay on Measles morbillivirus it was 0.47 µg/mL (≈ 2.02 µM); in the assay with Mumps virus, 1.1 µg/mL (≈ 4.72 µM).

As to `Nc1nc(Cl)nc2c1ncn2[C@@H]1C=C[C@@H](O)[C@H]1O`, the IC50 in the assay on Vero [1] was greater than 200 µg/mL; in the assay on Measles morbillivirus, greater than 25 µg/mL; with Mumps virus it was greater than 25 µg/mL.

As to `Nc1nc(F)nc2c1ncn2[C@@H]1C=C[C@@H](O)[C@H]1O`, the half-inhibitory concentration (IC50) in the assay with Vero [1] was greater than 200 µg/mL; in the assay with Measles morbillivirus, greater than 25 µg/mL; in the assay with Mumps virus it was 21 µg/mL (≈ 83.6 µM).

With `Nc1nc(F)nc2c1ncn2[C@@H]1C=C(CO)[C@@H](O)[C@H]1O`, the half-inhibitory concentration (IC50) is 10 µg/mL (≈ 35.6 µM) in the assay with HEL [3]; greater than 100 µg/mL in the assay on Vero [4]; greater than 200 µg/mL with Vero [1]; 0.25 µg/mL (≈ 0.889 µM) in [2]; 0.5 µg/mL (≈ 1.78 µM) with MOLT-4; 100 µg/mL (≈ 356 µM) with Vero [5]. Moreover, the IC50 was greater than 40 µg/mL in the assay with E6SM [6]; 2 µg/mL (≈ 7.11 µM) in the assay on HEL [7]; greater than 40 µg/mL in the assay with E6SM [8]; 0.6 µg/mL (≈ 2.13 µM) in the assay with Vero [9]; 0.19 µg/mL (≈ 0.676 µM) in the assay with FM3A; 40 µg/mL (≈ 142 µM) in the assay on E6SM [10]. In addition, the concentration for half-maximal inhibition (IC50) in the assay on Vero [11] is 1 µg/mL (≈ 3.56 µM); in the assay with E6SM [12] it was greater than 40 µg/mL; with E6SM [13], greater than 5 µg/mL; in the assay with E6SM [14] it was 1 µg/mL (≈ 3.56 µM); with HEL [15], 7 µg/mL (≈ 24.9 µM); with HeLa [16], greater than 40 µg/mL. Also, the IC50 was 0.03 µg/mL (≈ 0.107 µM) in the assay on Measles morbillivirus; 1.5 µg/mL (≈ 5.33 µM) in the assay with HEL [17]; 0.25 µg/mL (≈ 0.889 µM) with L1210; greater than 100 µg/mL in the assay on HeLa [18]; 2 µg/mL (≈ 7.11 µM) in the assay with Vero [19]; 1.2 µg/mL (≈ 4.27 µM) in the assay with Mumps virus. Moreover, the 50% inhibitory concentration (IC50) in the assay with HeLa [20] turned out to be 0.4 µg/mL (≈ 1.42 µM); in the assay on Vero [21] it was 0.7 µg/mL (≈ 2.49 µM); in the assay with HeLa [22], 100 µg/mL (≈ 356 µM); with E6SM [23], 0.1 µg/mL (≈ 0.356 µM); with CCRF-CEM it was 1.75 µg/mL (≈ 6.22 µM); in the assay on Vero [24], 0.7 µg/mL (≈ 2.49 µM).

For the molecule `Nc1ncnc2c1ncn2[C@@H]1C=C(CO)[C@@H](O)[C@H]1O` [NEOPLANOCIN A], the IC50 in the assay on HEL [3] was 10 µg/mL (≈ 38 µM); in the assay with Vero [4] it was greater than 40 µg/mL; with Vero [1], 155 µg/mL (≈ 589 µM); in assay [2], 0.25 µg/mL (≈ 0.95 µM); with MOLT-4, 2.34 µg/mL (≈ 8.89 µM); in the assay on Vero [5], 40 µg/mL (≈ 152 µM). The IC50 is 70 µg/mL (≈ 266 µM) with E6SM [6]; greater than 20 µg/mL with HEL [7]; greater than 40 µg/mL with E6SM [8]; 0.5 µg/mL (≈ 1.9 µM) in the assay on Vero [9]; 0.022 µg/mL (≈ 0.0836 µM) in the assay on FM3A; 70 µg/mL (≈ 266 µM) with E6SM [10]. The half-maximal inhibitory concentration (IC50) in the assay with Vero [11] was 7 µg/mL (≈ 26.6 µM); with E6SM [12], 20 µg/mL (≈ 76 µM); in the assay on E6SM [13], 0.4 µg/mL (≈ 1.52 µM); with E6SM [14], 7 µg/mL (≈ 26.6 µM); in the assay with HEL [15] it was 9 µg/mL (≈ 34.2 µM); in the assay on HeLa [16] it was greater than 40 µg/mL. The 50% inhibitory concentration (IC50) in the assay on Measles morbillivirus is 0.1 µg/mL (≈ 0.38 µM); in the assay on L1210, 0.027 µg/mL (≈ 0.103 µM); in the assay on HeLa [18], greater than 40 µg/mL; in the assay on Vero [19], 2 µg/mL (≈ 7.6 µM); with Mumps virus, 0.11 µg/mL (≈ 0.418 µM); in the assay with HeLa [20] it was 2 µg/mL (≈ 7.6 µM). The 50% inhibitory concentration (IC50) turned out to be 1.5 µg/mL (≈ 5.7 µM) in the assay on Vero [21]; 40 µg/mL (≈ 152 µM) in the assay with HeLa [22]; 0.7 µg/mL (≈ 2.66 µM) with E6SM [23]; 1.12 µg/mL (≈ 4.25 µM) in the assay on CCRF-CEM; 0.7 µg/mL (≈ 2.66 µM) in the assay with Vero [24].

Values taken from ChEMBL document CHEMBL1129081, “New neplanocin analogues. 7. Synthesis and antiviral activity of 2-halo derivatives of neplanocin A” (J Med Chem, 1996).
